Test results published in PubChem BioAssay AID1512 (Sanford-Burnham Center for Chemical Genomics, 2009).

Target: placental alkaline phosphatase (ALPP), human
Assay: human placental alkaline phosphatase inhibition – biochemical, luminescence, confirmation (AID 1512)
Conditions: purified PLAP enzyme, luminescent substrate read-out

Row | IC50 [µM] | Structure (SMILES)
1 | 4.96 | Cc1nc(Br)cn1CC(=O)c1ccc(O)c(O)c1
2 | 5.81 | Cc1cn(CC(=O)c2ccc(O)c(O)c2)cn1
3 | 17.2 | O=C(Cn1ccnc1-c1ccccc1)c1ccc(O)c(O)c1
4 | 9.11 | O=C(CNc1nc2ccccc2[nH]1)c1ccc(O)c(O)c1

Continued, compound first:

Row | Structure (SMILES) | IC50 [µM]
5 | Cc1cc(C)nc(NCc2ccc(O)c(O)c2)n1 | 51.2
6 | CC(C)NCC(=O)c1ccc(O)c(O)c1 | 39.3
7 | Cc1cc2ncn(CC(=O)c3ccc(O)c(O)c3)c2cc1C | 5.83
